Results on 13 compounds are retold here after ChEMBL document CHEMBL4145649, “Identification of the 4-Position of 3-Alkynyl and 3-Heteroaromatic Substituted Pyridine Methanamines as a Key Modification Site Eliciting Increased Potency and Enhanced Selectivity for Cytochrome P-450 2A6 Inhibition” (J Med Chem, 2018).

The target in one data set is Cytochrome P450 2E1 (Homo sapiens, UniProt P05181). Nature of the data set: Inhibition of CYP2E1 in human liver microsomes using chlorzoxazone as substrate preincubated for 5 mins followed by addition of NADPH-regenerating system and measured after 15 mins by UPLC-MS analysis.
A further data set concerns the target T1, Cytochrome P450 2C8 (Homo sapiens, UniProt P10632).
T1 sequence (P10632 whole entry): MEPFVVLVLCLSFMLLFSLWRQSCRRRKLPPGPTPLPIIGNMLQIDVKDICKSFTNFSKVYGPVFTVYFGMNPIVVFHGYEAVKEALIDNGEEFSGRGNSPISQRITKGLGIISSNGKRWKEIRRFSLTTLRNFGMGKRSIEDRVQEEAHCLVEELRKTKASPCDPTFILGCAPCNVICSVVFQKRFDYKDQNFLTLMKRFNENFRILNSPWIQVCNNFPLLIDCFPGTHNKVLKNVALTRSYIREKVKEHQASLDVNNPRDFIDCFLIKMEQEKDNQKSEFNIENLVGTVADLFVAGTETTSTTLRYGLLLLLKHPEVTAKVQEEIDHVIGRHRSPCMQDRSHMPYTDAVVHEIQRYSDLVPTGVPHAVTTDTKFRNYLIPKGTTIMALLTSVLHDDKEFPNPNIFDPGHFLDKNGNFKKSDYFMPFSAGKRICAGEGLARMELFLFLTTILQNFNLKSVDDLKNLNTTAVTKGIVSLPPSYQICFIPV
Nature of the data set: Inhibition of CYP2C8 in human liver microsomes using amodiaquine as substrate preincubated for 5 mins followed by addition of NADPH-regenerating system and measured after 15 mins by UPLC-MS analysis.

Another data set deals with Cytochrome P450 3A4 (Homo sapiens, UniProt P08684). Nature of the data set: Inhibition of CYP3A4 in human liver microsomes using midazolam as substrate preincubated for 5 mins followed by addition of NADPH-regenerating system and measured after 15 mins by UPLC-MS analysis.
The target of the next data set is Cytochrome P450 2D6 (Homo sapiens, UniProt P10635). In words: Inhibition of CYP2D6 in human liver microsomes using dextromethorphan as substrate preincubated for 5 mins followed by addition of NADPH-regenerating system and measured after 15 mins by UPLC-MS analysis.
The next data set addresses T2, Cytochrome P450 1A2 (Homo sapiens, UniProt P05177).
T2 sequence (P05177 whole entry): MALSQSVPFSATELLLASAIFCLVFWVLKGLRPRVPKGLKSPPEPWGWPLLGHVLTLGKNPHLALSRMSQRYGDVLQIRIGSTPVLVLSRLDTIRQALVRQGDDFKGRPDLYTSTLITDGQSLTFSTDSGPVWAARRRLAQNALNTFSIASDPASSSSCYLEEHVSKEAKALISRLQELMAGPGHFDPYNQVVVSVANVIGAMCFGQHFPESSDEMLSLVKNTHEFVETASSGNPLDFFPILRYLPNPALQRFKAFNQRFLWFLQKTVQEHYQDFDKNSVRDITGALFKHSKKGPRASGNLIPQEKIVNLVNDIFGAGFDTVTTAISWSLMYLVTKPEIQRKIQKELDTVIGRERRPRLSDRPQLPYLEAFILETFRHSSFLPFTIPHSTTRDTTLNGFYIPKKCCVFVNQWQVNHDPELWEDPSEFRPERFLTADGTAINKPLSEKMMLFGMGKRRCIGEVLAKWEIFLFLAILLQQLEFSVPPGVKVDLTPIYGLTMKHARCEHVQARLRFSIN
In words: Inhibition of CYP1A2 in human liver microsomes using phenacetin as substrate preincubated for 5 mins followed by addition of NADPH-regenerating system and measured after 15 mins by UPLC-MS analysis.

Data set [1] can be described thus: Half life in human liver microsomes at 10 uM up to 2 hrs at 37 degC in presence of NADPH-regenerating system by UPLC/MS analysis.
In a further data set the target is T3, Cytochrome P450 2B6 (Homo sapiens, UniProt P20813).
T3 sequence (P20813 whole entry): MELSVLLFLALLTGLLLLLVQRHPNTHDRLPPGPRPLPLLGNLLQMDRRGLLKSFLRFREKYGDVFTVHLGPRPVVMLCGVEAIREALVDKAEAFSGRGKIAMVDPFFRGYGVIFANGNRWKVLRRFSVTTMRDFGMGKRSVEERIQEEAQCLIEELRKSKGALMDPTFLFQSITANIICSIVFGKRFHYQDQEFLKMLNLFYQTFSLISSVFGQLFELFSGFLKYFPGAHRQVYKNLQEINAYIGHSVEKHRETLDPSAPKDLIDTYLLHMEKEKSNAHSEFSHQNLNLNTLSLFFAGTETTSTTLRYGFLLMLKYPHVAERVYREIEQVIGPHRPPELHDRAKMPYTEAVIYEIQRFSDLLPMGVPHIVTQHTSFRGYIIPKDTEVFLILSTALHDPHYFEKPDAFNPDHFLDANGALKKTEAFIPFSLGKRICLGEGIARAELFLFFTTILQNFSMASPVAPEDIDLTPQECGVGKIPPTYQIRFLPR
Nature of the data set: Inhibition of CYP2B6 in human liver microsomes using bupropion as substrate preincubated for 5 mins followed by addition of NADPH-regenerating system and measured after 15 mins by UPLC-MS analysis.

For a further data set, the target named is Cytochrome P450 2C9 (Homo sapiens, UniProt P11712). In words: Inhibition of CYP2C9 in human liver microsomes using diclofenac as substrate preincubated for 5 mins followed by addition of NADPH-regenerating system and measured after 15 mins by UPLC-MS analysis.
Another data set concerns the target Cytochrome P450 2C19 (Homo sapiens, UniProt P33261). In words: Inhibition of CYP2C19 in human liver microsomes using omeprazole as substrate preincubated for 5 mins followed by addition of NADPH-regenerating system and measured after 15 mins by UPLC-MS analysis.
A further data set addresses T4, Cytochrome P450 2A6 (Homo sapiens, UniProt P11509).
T4 sequence (P11509 whole entry): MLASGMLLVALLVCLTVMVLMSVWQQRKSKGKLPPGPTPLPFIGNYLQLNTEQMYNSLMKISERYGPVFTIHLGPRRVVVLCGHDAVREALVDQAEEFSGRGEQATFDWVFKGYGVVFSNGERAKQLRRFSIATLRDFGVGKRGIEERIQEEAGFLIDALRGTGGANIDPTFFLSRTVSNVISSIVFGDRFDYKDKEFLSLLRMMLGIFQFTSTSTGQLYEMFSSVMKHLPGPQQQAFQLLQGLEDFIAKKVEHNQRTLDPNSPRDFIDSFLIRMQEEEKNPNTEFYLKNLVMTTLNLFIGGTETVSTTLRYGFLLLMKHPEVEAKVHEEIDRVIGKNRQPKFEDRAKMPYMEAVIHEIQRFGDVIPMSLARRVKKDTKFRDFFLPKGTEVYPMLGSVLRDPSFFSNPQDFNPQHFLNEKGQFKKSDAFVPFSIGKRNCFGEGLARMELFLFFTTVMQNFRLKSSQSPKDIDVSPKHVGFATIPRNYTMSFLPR
In words: Inhibition of CYP2A6 in human liver microsomes using coumarin as substrate preincubated for 5 mins followed by addition of NADPH-regenerating system and measured after 15 mins by UPLC-MS analysis.

Structures are written as SMILES. pIC50: −log10 of the molar value.

Chain of Cytochrome P450 2C19 (P33261 whole entry): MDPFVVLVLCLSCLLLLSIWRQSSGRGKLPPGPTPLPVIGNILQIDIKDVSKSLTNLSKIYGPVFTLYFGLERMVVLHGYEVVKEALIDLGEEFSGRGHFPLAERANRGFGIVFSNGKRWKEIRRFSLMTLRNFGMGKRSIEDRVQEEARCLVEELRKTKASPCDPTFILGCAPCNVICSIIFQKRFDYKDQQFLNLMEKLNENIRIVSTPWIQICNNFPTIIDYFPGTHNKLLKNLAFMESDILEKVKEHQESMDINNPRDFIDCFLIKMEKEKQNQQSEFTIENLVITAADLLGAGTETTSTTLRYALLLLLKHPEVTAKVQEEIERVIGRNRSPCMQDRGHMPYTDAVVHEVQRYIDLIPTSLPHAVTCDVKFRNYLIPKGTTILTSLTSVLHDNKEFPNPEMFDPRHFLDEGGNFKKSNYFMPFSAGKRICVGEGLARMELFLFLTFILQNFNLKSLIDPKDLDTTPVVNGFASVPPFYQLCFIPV
Chain of Cytochrome P450 2C9 (P11712 whole entry): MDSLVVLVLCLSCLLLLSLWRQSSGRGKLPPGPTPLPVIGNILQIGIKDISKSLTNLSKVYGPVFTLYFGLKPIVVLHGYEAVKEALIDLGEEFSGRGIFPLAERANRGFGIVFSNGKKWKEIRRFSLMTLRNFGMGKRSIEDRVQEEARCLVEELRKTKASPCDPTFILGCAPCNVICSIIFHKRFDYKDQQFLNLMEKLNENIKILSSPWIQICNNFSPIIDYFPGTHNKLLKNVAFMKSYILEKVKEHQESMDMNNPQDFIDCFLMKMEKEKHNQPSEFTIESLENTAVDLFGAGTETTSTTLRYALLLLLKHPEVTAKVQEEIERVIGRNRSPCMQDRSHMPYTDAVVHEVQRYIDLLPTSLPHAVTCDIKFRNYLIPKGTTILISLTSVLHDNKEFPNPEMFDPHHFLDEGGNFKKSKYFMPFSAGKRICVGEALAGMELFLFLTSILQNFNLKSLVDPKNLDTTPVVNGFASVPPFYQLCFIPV
Chain of Cytochrome P450 2D6 (P10635 whole entry): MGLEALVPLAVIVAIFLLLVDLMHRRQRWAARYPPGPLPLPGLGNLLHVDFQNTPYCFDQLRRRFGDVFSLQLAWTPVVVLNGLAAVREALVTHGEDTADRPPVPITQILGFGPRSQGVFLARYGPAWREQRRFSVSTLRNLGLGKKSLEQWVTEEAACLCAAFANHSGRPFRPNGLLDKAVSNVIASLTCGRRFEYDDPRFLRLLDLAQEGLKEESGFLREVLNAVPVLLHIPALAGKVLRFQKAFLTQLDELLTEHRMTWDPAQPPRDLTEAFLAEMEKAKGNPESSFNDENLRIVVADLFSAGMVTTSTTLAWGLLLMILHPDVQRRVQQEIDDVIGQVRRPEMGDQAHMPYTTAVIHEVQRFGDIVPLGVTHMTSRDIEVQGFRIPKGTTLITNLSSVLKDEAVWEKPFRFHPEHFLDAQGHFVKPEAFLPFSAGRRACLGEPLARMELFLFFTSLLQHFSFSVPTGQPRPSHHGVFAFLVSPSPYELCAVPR
Chain of Cytochrome P450 3A4 (P08684 whole entry): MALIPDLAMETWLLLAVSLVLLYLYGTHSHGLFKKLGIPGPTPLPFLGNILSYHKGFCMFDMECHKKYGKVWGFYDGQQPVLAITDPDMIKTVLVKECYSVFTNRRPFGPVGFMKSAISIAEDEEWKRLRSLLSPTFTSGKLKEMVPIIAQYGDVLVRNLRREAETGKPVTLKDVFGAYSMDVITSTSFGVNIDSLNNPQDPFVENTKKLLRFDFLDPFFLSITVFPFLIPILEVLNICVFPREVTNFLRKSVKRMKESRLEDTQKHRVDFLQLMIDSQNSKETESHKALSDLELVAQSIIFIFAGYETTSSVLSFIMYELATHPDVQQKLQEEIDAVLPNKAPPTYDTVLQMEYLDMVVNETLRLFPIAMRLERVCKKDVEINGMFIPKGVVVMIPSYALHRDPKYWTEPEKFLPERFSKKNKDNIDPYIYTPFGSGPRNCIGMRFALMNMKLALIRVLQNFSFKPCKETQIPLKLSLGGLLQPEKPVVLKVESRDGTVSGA
Chain of Cytochrome P450 2E1 (P05181 whole entry): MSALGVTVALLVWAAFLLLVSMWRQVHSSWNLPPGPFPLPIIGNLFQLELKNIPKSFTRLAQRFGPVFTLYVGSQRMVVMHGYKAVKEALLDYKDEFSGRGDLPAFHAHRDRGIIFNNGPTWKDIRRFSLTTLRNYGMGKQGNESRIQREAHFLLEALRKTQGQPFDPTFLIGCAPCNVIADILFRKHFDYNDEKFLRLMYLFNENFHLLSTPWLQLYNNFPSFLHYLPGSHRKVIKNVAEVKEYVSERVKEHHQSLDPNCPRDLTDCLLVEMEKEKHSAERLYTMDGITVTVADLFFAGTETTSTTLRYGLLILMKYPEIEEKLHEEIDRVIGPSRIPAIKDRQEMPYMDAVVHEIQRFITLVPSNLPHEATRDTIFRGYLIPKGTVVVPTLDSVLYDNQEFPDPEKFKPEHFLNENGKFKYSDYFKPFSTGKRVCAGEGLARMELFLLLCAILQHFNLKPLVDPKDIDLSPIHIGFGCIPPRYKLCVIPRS

In the case of `Cl.Cl.Cl.NCC#Cc1cnccc1-c1ccncc1`, the pIC50 is under 4.60 against Cytochrome P450 2E1; under 4.30 against Cytochrome P450 2C8; under 4.60 against Cytochrome P450 3A4; 4.92 at Cytochrome P450 2D6; 4.68 on Cytochrome P450 1A2; under 4.60 at Cytochrome P450 2B6. For the same compound, the t1/2 in data set [1] turned out to be 36 min.
As to `NCC#Cc1cnccc1-c1cncnc1`, the pIC50 at Cytochrome P450 2E1 is under 4.60; at Cytochrome P450 2C8, under 4.30; on Cytochrome P450 3A4, under 4.60; against Cytochrome P450 2D6, under 4.60; against Cytochrome P450 1A2, under 4.60; at Cytochrome P450 2B6, under 4.60.
As to `NCC#Cc1cnccc1-c1ccco1`, the pIC50 is 5.55 against Cytochrome P450 2C9; 5.43 on Cytochrome P450 2C19; 5.72 against Cytochrome P450 2E1; 5.12 against Cytochrome P450 2C8; 4.96 against Cytochrome P450 3A4; 5.41 on Cytochrome P450 2D6. The negative logarithm of the IC50 (pIC50) was 5.85 on Cytochrome P450 1A2 and 5.30 at Cytochrome P450 2B6.
Consider `Cl.Cl.Cl.Cl.NCc1ccc(-c2cnccc2-c2cncnc2)s1`, for which the pIC50 was under 4.30 on Cytochrome P450 2E1; under 4.60 against Cytochrome P450 2C8; 4.41 against Cytochrome P450 3A4; 4.60 on Cytochrome P450 1A2; 4.40 on Cytochrome P450 2B6. The t1/2 in [1] is recorded as over 120 min.
On to `Cl.Cl.Cl.NCc1ccc(-c2cnccc2-c2cccnc2)o1`, for which the pIC50 was 4.55 against Cytochrome P450 2C9; 4.89 against Cytochrome P450 2C19; 4.51 against Cytochrome P450 2E1; under 4.60 against Cytochrome P450 2C8; 4.05 against Cytochrome P450 3A4; 5.36 against Cytochrome P450 1A2. This compound also showed a pIC50 on Cytochrome P450 2B6 of 5.11. Further, the t1/2 in [1] was over 120 min.
As for `COc1ccncc1C#CCN`, the pIC50 is 4.55 at Cytochrome P450 2C9; 5.03 on Cytochrome P450 2C19; 4.74 against Cytochrome P450 2E1; under 4.30 at Cytochrome P450 2C8; under 4.30 on Cytochrome P450 3A4; under 4.30 against Cytochrome P450 2D6. Also, the pIC50 at Cytochrome P450 1A2 was 4.60; against Cytochrome P450 2B6, 4.96.
Consider `Cl.Cl.Cl.Cl.NCc1ccc(-c2cnccc2-c2cncnc2)o1`, for which the pIC50 on Cytochrome P450 2C9 was under 4.60; against Cytochrome P450 2C19, under 4.60; at Cytochrome P450 2E1 it was under 4.30; against Cytochrome P450 2C8, under 4.30; on Cytochrome P450 3A4 it was under 4.60; at Cytochrome P450 1A2 it was 5.12. For the same compound, at Cytochrome P450 2B6, the pIC50 was under 4.60. In [1], the t1/2 is recorded as over 120 min.
Turning to `NCc1ccc(-c2cnccc2-c2ccco2)s1`, the pIC50 against Cytochrome P450 2C9 was 5.36; against Cytochrome P450 2C19 it was 5.85; against Cytochrome P450 2E1, 5.51; on Cytochrome P450 2C8, 5.42; at Cytochrome P450 3A4 it was 5.15; against Cytochrome P450 2D6, under 4.30. Moreover, the pIC50 was 6.70 against Cytochrome P450 1A2 and 7.14 on Cytochrome P450 2B6.
`NCC#Cc1cncnc1`: the pIC50 against Cytochrome P450 2A6 was under 5.00.
In the case of `Cl.Cl.Cl.NCc1ccc(-c2cnccc2-c2ccncc2)s1`, the pIC50 against Cytochrome P450 2E1 was 4.51; against Cytochrome P450 2C8, under 4.60; against Cytochrome P450 3A4, 3.67; on Cytochrome P450 1A2, 5.32; against Cytochrome P450 2B6 it was 5.46. Besides, the t1/2 in [1] was 32 min.
On to `Cc1cncc(C#CCN)c1`, for which, at Cytochrome P450 2A6, the pIC50 is under 5.00.
For the compound `Cc1ccncc1C#CCN.Cl.Cl`, the negative logarithm of the IC50 (pIC50) against Cytochrome P450 2C9 is 4.44; against Cytochrome P450 2C19, 5.10; against Cytochrome P450 2E1, 4.72; on Cytochrome P450 2C8 it was 5.07; at Cytochrome P450 3A4 it was 5.25; on Cytochrome P450 2D6, 5.62. Moreover, the negative logarithm of the IC50 (pIC50) against Cytochrome P450 1A2 is 4.96; at Cytochrome P450 2B6 it was 4.70. Also, the t1/2 in data set [1] stood at 8.4 min.
Turning to `CCc1ccncc1C#CCN.Cl.Cl`, the pIC50 is 4.82 against Cytochrome P450 2E1; 4.60 on Cytochrome P450 2C8; under 4.30 against Cytochrome P450 3A4; 5.18 against Cytochrome P450 2D6; under 4.30 at Cytochrome P450 1A2; 4.72 against Cytochrome P450 2B6. Besides, the t1/2 in data set [1] was determined as 9.8 min.
